Data reported in patent publication US11987586B1 (TAKEDA PHARMACEUTICAL COMPANY LIMITED, priority 2022, dated 2024).

What follows are compounds tested against T1, human OX2 receptor (Homo sapiens, UniProt O43614) (assay: Measurement of orexin type 2 receptor agonist activity (calcium fluorescence, Fluo-4, FDSS)). Conditions: 3 uM test compound; CHO cells expressing human OX2 receptor; DMSO = 0%, 10 nM orexin A (human) = 100%.
T1 construct: expressed in transfected cells
T1 sequence (O43614 1-444): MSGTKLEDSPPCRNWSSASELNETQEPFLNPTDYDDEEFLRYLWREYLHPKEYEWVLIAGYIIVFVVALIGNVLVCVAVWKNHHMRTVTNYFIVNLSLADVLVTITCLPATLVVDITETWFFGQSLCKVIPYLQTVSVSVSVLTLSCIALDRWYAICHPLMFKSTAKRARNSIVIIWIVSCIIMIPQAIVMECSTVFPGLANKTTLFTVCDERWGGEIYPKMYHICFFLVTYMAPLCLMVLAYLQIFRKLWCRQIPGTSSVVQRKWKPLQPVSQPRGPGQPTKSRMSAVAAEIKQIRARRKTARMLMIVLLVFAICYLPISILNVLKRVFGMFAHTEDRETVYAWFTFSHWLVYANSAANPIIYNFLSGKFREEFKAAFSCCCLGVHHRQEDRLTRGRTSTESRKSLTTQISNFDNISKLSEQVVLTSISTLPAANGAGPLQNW
Assay type: cell-based
Procedure: In order to obtain cell clones that stably express human orexin type 2 receptor, human orexin type 2 (residues 1-444, NCBI Reference Sequence: AK314279) was constructed in a pcDNA3.1 (+) vector (Invitrogen) to express in mammalian cells. This plasmid DNA was transfected into CHO-K1 cells by electroporation, and stable clones were obtained by limiting dilution using resistance to G418 as a selection marker.
CHO cells in which human OX2 receptor was forcibly expressed were seeded at 10,000 cells/well into a 384-well black transparent bottom plate (BD falcon), and were incubated at 37° C., 5% CO2 for 1 day after incubation at room temperature for 30 minutes. After removing the cell plate medium, assay buffer containing calcium indicator A (HBSS (Thermo Fisher Scientific), 20 mM HEPES (Thermo Fisher Scientific), 0.1% BSA (Sigma-Aldrich), 2.5 μg/mL Fluo-4 AM (Dojin Kagaku), 0.08% Pluronic F127 (Dojin Kagaku), 1.25 mM probenecid (Dojin Kagaku)) was added at 30 μL/well. After incubation in a 5% CO2 incubator at 37° C. for 30 minutes, it was incubated at room temperature for another 30 minutes. Add 10 μL/well of the test compound diluted with assay buffer B (HBSS, 20 mM HEPES, 0.1% BSA), and use FDSS μCELL (Hamamatsu Photonics) to measure the fluorescence value every 1 second for 1 minute, and then every 2 seconds for 1 minute. It was measured for 1 minute and 40 seconds. The amount of fluorescence value when DMSO is added instead of the test compound is defined as 0%, and the amount of fluorescence value when orexin A (human) (Peptide Institute) with a final concentration of 10 nM is added is defined as 100%. The activity (%) of the test compound was calculated.

Going from CCS(=O)(=O)N[C@@H]1CN2C(=O)N(c3noc4cccc(-c5c(F)cccc5F)c34)C[C@@H]2[C@@H]1F (relative stereo) [Example 4, rel-N-{(6R,7S,7aR)-2-[4-(2,6-difluorophenyl)-1,2-benzoxazol-3-yl]-7-fluoro-3-oxohexahydro-1H-pyrrolo[1,2-c]imidazol-6-yl}ethanesulfonamide] to CCS(=O)(=O)N[C@@H]1Cn2c(cn(-c3noc4cccc(-c5c(F)cccc5F)c34)c2=O)[C@@H]1F (relative stereo) [Example 129, rel-N-{(6R, 7R)-2-[4-(2,6-difluorophenyl)-1,2-benzoxazol-3-yl]-7-fluoro-3-oxo-2,5,6,7-tetrahydro-3H-pyrrolo[1,2-c]imidazol-6-yl}ethanesulfonamide], the “OX2R agonist activity (3 uM, %)” value falls from 105% to 103%.

First: CS(=O)(=O)N[C@@H]1CC[C@H]2CN(c3noc4cccc(-c5c(F)cccc5F)c34)C(=O)N2C1 (relative stereo) [Example 63, rel-N-{(6R, 8aS)-2-[4-(2,6-difluorophenyl)-1,2-benzoxazol-3-yl]-3-oxooctahydroimidazo[1,5-a]pyridin-6-yl}methanesulfonamide]
Second: CS(=O)(=O)N[C@@H]1CN2C(=O)N(c3noc4cccc(-c5c(F)cccc5F)c34)C[C@H]2CC1(F)F (relative stereo) [Example 216, rel-N-{(6R,8aR)-2-[4-(2,6-difluorophenyl)-1,2-benzoxazol-3-yl]-7,7-difluoro-3-oxooctahydroimidazo[1,5-a]pyridin-6-yl}methanesulfonamide]
The “OX2R agonist activity (3 uM, %)” value of the first is higher: 107% for the first, 101% for the second.

Going from CCS(=O)(=O)N[C@H]1Cn2c(cn(-c3noc4cccc(-c5c(F)cccc5F)c34)c2=O)[C@H]1C (relative stereo) [Example 109, rel-N-{(6R,7S)-2-[4-(2,6-difluorophenyl)-1,2-benzoxazol-3-yl]-7-methyl-3-oxo-2,5,6,7-tetrahydro-3H-pyrrolo[1,2-c]imidazol-6-yl}ethanesulfonamide] to CCS(=O)(=O)N[C@H]1Cn2c(cn(-c3noc4cccc(-c5c(F)cccc5F)c34)c2=O)[C@@H]1C (relative stereo) [Example 131, rel-N-{(6R, 7R)-2-[4-(2,6-difluorophenyl)-1,2-benzoxazol-3-yl]-7-methyl-3-oxo-2,5,6,7-tetrahydro-3H-pyrrolo[1,2-c]imidazol-6-yl}ethanesulfonamide], the “OX2R agonist activity (3 uM, %)” value falls from 103% to 96%.

Going from CS(=O)(=O)N[C@@H]1CN2C(=O)N(c3noc4cccc(-c5c(F)cc(F)cc5F)c34)C(O)[C@@H]2C1(F)F (relative stereo) [Example 125, N-{(1R*,6R,7aR)-7,7-difluoro-1-hydroxy-3-oxo-2-[4-(2,4,6-trifluorophenyl)-1,2-benzoxazol-3-yl]hexahydro-1H-pyrrolo[1,2-c]imidazol-6-yl}methanesulfonamide] to CS(=O)(=O)NC1Cn2c(cn(-c3noc4cc(F)cc(-c5c(F)cc(F)cc5F)c34)c2=O)CC1(F)F (single isomer, unassigned) [Example 214, N-{(6R*)-7,7-difluoro-2-[6-fluoro-4-(2,4,6-trifluorophenyl)-1,2-benzoxazol-3-yl]-3-oxo-2,3,5,6,7,8-hexahydroimidazo[1,5-a]pyridin-6-yl}methanesulfonamide], the “OX2R agonist activity (3 uM, %)” value rises from 103% to 106%.

Going from CS(=O)(=O)N[C@@H]1C[C@H]2CN(c3noc4cccc(-c5c(F)cccc5F)c34)C(=O)[C@H]2C1 (relative stereo) [Example 337, rel-N-{(3aR,5R,6aS)-2-[4-(2,6-difluorophenyl)-1,2-benzoxazol-3-yl]-1-oxooctahydrocyclopenta[c]pyrrol-5-yl}methanesulfonamide] to CS(=O)(=O)N[C@H]1C[C@H]2CN(c3noc4cccc(-c5c(F)cccc5F)c34)C(=O)[C@H]2C1 (relative stereo) [Example 338, rel-N-{(3aR,5S,6aS)-2-[4-(2,6-difluorophenyl)-1,2-benzoxazol-3-yl]-1-oxooctahydrocyclopenta[c]pyrrol-5-yl}methanesulfonamide], the “OX2R agonist activity (3 uM, %)” value rises from 79% to 100%.

Compared with CCS(=O)(=O)NC1Cn2c(cn(-c3noc4cccc(-c5c(F)cccc5F)c34)c2=O)C1(F)F (single isomer, unassigned) [Example 5, N-{(6R*)-2-[4-(2,6-difluorophenyl)-1,2-benzoxazol-3-yl]-7,7-difluoro-3-oxo-2,5,6,7-tetrahydro-3H-pyrrolo[1,2-c]imidazol-6-yl}ethanesulfonamide], CCS(=O)(=O)NC1Cn2c(cn(-c3noc4cccc(-c5c(F)cccc5F)c34)c2=O)CC1(F)F (single isomer, unassigned) [Example 181, N-{(6R*)-2-[4-(2,6-difluorophenyl)-1,2-benzoxazol-3-yl]-7,7-difluoro-3-oxo-2,3,5,6,7,8-hexahydroimidazo[1,5-a]pyridin-6-yl}ethanesulfonamide] is lower in “OX2R agonist activity (3 uM, %)” value: 106% for the first, 105% for the second.

First: CS(=O)(=O)NC1Cn2c(cn(-c3noc4cccc(-c5c(F)cccc5F)c34)c2=O)CC1(F)F (single isomer, unassigned) [Example 117, N-{(6R*)-2-[4-(2,6-difluorophenyl)-1,2-benzoxazol-3-yl]-7,7-difluoro-3-oxo-2,3,5,6,7,8-hexahydroimidazo[1,5-a]pyridin-6-yl}methanesulfonamide]
Second: CS(=O)(=O)NC1Cn2c(cn(-c3noc4ccc(F)c(-c5c(F)cc(F)cc5F)c34)c2=O)CC1(F)F (single isomer, unassigned) [Example 231, N-{(6R*)-7,7-difluoro-2-[5-fluoro-4-(2,4,6-trifluorophenyl)-1,2-benzoxazol-3-yl]-3-oxo-2,3,5,6,7,8-hexahydroimidazo[1,5-a]pyridin-6-yl}methanesulfonamide]
The “OX2R agonist activity (3 uM, %)” value of the first is lower: 97% for the first, 103% for the second.

Going from CCS(=O)(=O)NC1Cn2c(cn(-c3noc4cc(F)cc(-c5c(F)cc(F)cc5F)c34)c2=O)CC1(F)F (single isomer, unassigned) [Example 240, N-{(6R*)-7,7-difluoro-2-[6-fluoro-4-(2,4,6-trifluorophenyl)-1,2-benzoxazol-3-yl]-3-oxo-2,3,5,6,7,8-hexahydroimidazo[1,5-a]pyridin-6-yl}ethanesulfonamide] to CCS(=O)(=O)NC1Cn2c(cn(-c3noc4ccc(F)c(-c5c(F)cc(F)cc5F)c34)c2=O)CC1(F)F (single isomer, unassigned) [Example 246, N-{(6R*)-7,7-difluoro-2-[5-fluoro-4-(2,4,6-trifluorophenyl)-1,2-benzoxazol-3-yl]-3-oxo-2,3,5,6,7,8-hexahydroimidazo[1,5-a]pyridin-6-yl}ethanesulfonamide], the “OX2R agonist activity (3 uM, %)” value rises from 106% to 107%.

First: Cc1cc(-c2c(F)cc(F)cc2F)c2c(-n3cc4n(c3=O)CC(NS(C)(=O)=O)C(F)(F)C4)noc2n1 (single isomer, unassigned) [Example 245, N-{(6R*)-7,7-difluoro-2-[6-methyl-4-(2,4,6-trifluorophenyl)[1,2]oxazolo[5,4-b]pyridin-3-yl]-3-oxo-2,3,5,6,7,8-hexahydroimidazo[1,5-a]pyridin-6-yl}methanesulfonamide]
Second: Cc1cc2onc(-n3cc4n(c3=O)CC(NS(C)(=O)=O)C(F)(F)C4)c2c(-c2c(F)cc(F)cc2F)n1 (single isomer, unassigned) [Example 289, N-{(6R*)-7,7-difluoro-2-[6-methyl-4-(2,4,6-trifluorophenyl)[1,2]oxazolo[4,5-c]pyridin-3-yl]-3-oxo-2,3,5,6,7,8-hexahydroimidazo[1,5-a]pyridin-6-yl}methanesulfonamide]
The “OX2R agonist activity (3 uM, %)” value of the first is higher: 108% for the first, 97% for the second.

Compared with CCS(=O)(=O)NC1Cn2c(C)c(-c3noc4cccc(-c5c(F)cccc5F)c34)c(=O)n2C1 (single isomer, unassigned) [Example 336, N-{(2R*)-6-[4-(2,6-difluorophenyl)-1,2-benzoxazol-3-yl]-7-methyl-5-oxo-2,3-dihydro-1H,5H-pyrazolo[1,2-a]pyrazol-2-yl}ethanesulfonamide], CCS(=O)(=O)NC1Cn2cc(-c3noc4cccc(-c5c(F)cccc5F)c34)c(=O)n2C1 (single isomer, unassigned) [Example 339, N-{(2R*)-6-[4-(2,6-difluorophenyl)-1,2-benzoxazol-3-yl]-5-oxo-2,3-dihydro-1H,5H-pyrazolo[1,2-a]pyrazol-2-yl}ethanesulfonamide] is lower in “OX2R agonist activity (3 uM, %)” value: 98% for the first, 96% for the second.
